Read-outs that look alike come from different tables or passages of the source.
What was measured:
[1] = test system: L. major promastigotes; assay: L. major promastigote viability, resazurin reduction; type: cell-based, Leishmania major; settings: for viability at 25 µM: Leishmania major
From the text: (§1) The infectivity of the parasites was boosted by passaging in Balb/c mice and culturing the infected lymph nodes after six weeks. L. infantum (MHOM / BR / 76 / M4192) parasite was passaged in the same media formulation with 0.5% urine.

[2] = test system: L. infantum promastigotes; assay: L. infantum promastigote viability, resazurin reduction; type: cell-based, Leishmania infantum; settings: for viability at 2.5 µM / viability at 25 µM: Leishmania infantum
From the text: as §1

[3] = test system: L. major axenic amastigotes; assay: L. major axenic amastigote viability, resazurin reduction
Description: L. major LV561(MHOM/IL/67/LRC-L137 JERICHO II) amastigotes were passaged in Grace insect medium supplemented with NaHCO3, 0.1% amikin and 20% of FCS (pH: 5.4) and kept at 33°C.
Exponential growth phase promastigotes of L. major or L. infantum and axenic amastigotes (L. major) were harvested and seeded in 384 well plates (white, non-transparent, tissue culture treated, flat bottom; Corning) (0.5x10^5 cells per well). Compounds were pre-dispensed into the plate with an Echo 650 acoustic dispenser (Beckman Coulter). After 72h incubation, resazurin was added (1:10 v/v) from a […] stock in PBS, followed by incubation for six hours. Then, fluorescence intensity was measured using a microplate reader (Synergy H1, BioTek) with excitation filter: 550 nm and emission filter: 590 nm. Efficient compounds were selected for the next round of viability assay with 2.5 μM concentrations of the compounds. […] All experiments were performed with AmB as a positive control drug in parallel.
Axenic amastigotes, the relevant form that persists in the infected host, were generated in the lab through established procedures, employing harsh pH (pH 5) and high temperature (33°C) conditions.

[4] = test system: T. brucei brucei BSF; assay: T. brucei BSF viability, resazurin reduction; type: cell-based, Trypanosoma brucei brucei; settings: for EC50: ± SD (Table 2) / ± SE (S3 Table)
Description: T. brucei brucei (strain 427 Lister) blood stream form (BSF) parasites were passaged in complete HMI-9 media supplemented with 10% FCS, Pen-Strep (0.1%) and 2-mercaptoethanol (0.014 v/v) and kept in a 37° C CO2 incubator in filter-cap flasks.
(§2) Viability of T. brucei brucei BSF and T. cruzi trypomastigotes was assayed with fluorescence resazurin reduction assay, essentially as described above. […] Next, selected compounds were tested at 2.5 μM concentration, and promising compounds subjected to 18 concentrations dose response analyses. AN3057 and AmB were used as a control drug in T. brucei and T. cruzi, respectively.

[5] = test system: T. cruzi trypomastigotes; assay: T. cruzi viability, resazurin reduction; type: cell-based, Trypanosoma cruzi; settings: for viability at 2.5 µM / viability at 25 µM: Trypanosoma cruzi
Description: T. cruzi (Y strain) trypomastigotes were passaged in liver infusion broth media supplemented with tryptose, NaCl, Na2HPO4, KCl, glucose, hemin, Pen-Strep (1%), 10% FCS (pH: 7.2) and kept at 28°C.
as §2

[6] = test system: E. histolytica; assay: E. histolytica viability, ATP luminescence (Cell titer glo); type: cell-based, Entamoeba histolytica; settings: for EC50 / viability at 2.5 µM / viability at 25 µM: Entamoeba histolytica; for EC50: 9 to 16-point dose response
Description: Entamoeba histolytica (strain B2-5) was passaged in TY-1 medium (Trypticase peptone BBL, Yeast extract BBL, glucose, NaCl, K2HPO4, KH2PO4, cysteine, ascorbic acid, ammonium iron citrate, adult bovine serum, Diamond tween 80, penicillin G, amikacin (pH:6.8)) and kept in 37°C incubator in completely filled tubes with closed lid.
Viability of E. histolytica was assayed via a luminescence assay based on ATP quantification in the live cells. Briefly, 2.5x10^4 cell/ml were exposed to 25 μM of compounds in 96 well plates (non-transparent, tissue culture treated, flat bottom; SPL Life Sciences) in triplicate for 48h. Plates were incubated in sealed anaerobic bags (Oxoid AGS) together with an Anaerogen compact bag (Thermo Scientific) and anaerobic indicator (Thermo Scientific) at 37°C. Then, Cell titer glo reagent (Promega) was added to the reaction (1:5) according to manufacturers’ instruction. After 15 min of orbital shaking, followed by 10 min incubation at RT, ATP-bioluminescence was quantified at RT using a Synergy H1 plate reader (Synergy H1, BioTek). Metronidazole was included as control drug in all the assays for E. histolytica. Test compounds indicating significant growth reduction in the primary screen were subjected to potency determination. These secondary screens were essentially carried out as detailed above, but with a 9 to 16-point concentration range of the test compounds spanning 0.01–100 μM.

[7] = Cytotoxicity assay J774, resazurin reduction; type: cell-based, murine; settings: mouse, J774 macrophage cells
Description: (§3) Mammalian cell lines (J774 and HepG2) were passaged in RPMI media supplemented with MEM, Pen-Strep (1%) and 10% FCS. Cultures were kept at 37°C incubator with 5% CO2 in filter-cap flasks.
(§4) Murine macrophage cells (J774) and human hepatocyte carcinoma HepG2 cells were seeded at 0.5x10^5 cell/well in 384 well plates in triplicate, exposed to serial dilution of compounds, dispensed using an Echo 650 acoustic dispenser (Labcyte). After incubation for 72 h at 37°C, 5% CO2, cell viability was determined using fluorescence resazurin reduction assay (λEx: 550 nm; λEm: 590 nm).

[8] = test system: intracellular L. infantum amastigotes; assay: Parasite rescue assay (intramacrophage, J774 infected with L. infantum); type: cell-based, Leishmania infantum; settings: for viability at 25 µM: J774, 25 µM, intracellular amastigote, read-out: viability, intracellular L. major amastigote (25 µM)
[9] = test system: intracellular L. infantum amastigotes; assay: as above; type: cell-based, Leishmania infantum; settings: Leishmania infantum
Description: After 24 h incubation, cells were washed five times with serum free RPMI and exposed to a serial dilution of test compounds, prepared using an acoustic dispenser (Echo 650, Labcyte), in RPMI (2% FCS). After two days, cells were washed thrice, and 20 μl of 0.05% SDS in RPMI was added upon removal of the supernatant. Upon incubation under orbital shaking for 30 seconds, cell lysis was stopped by addition of 180 μl M199 medium supplemented with 10% FCS. […] Then, fluorescence intensity of the samples was measured with a microplate reader (Synergy H1, BioTek) with λEx: 550 nm and λEm: 590 nm. Percent of viability was calculated according to cell only and media controls.
J774A.1 cells (J774) were infected with L. infantum metacyclic promastigotes. […] After controlled lysis of the infected macrophages, the released parasites were quantified using a resazurin based viability assay.

[10] = test system: Murine macrophage cells (J774); assay: Cytotoxicity assay J774, resazurin reduction; type: cell-based
Description: as §3, §4

[11] = 72 h, read-out: viability, L.major promastigote (25 µM)
[12] = 25 µM, read-out: viability, L.major promastigote (25 µM)
[13] = 2.5 µM, sheet LTC_compound_viability, value ± spread, read-out: viability, L. infantum promastigote (2.5 µM)
[14] = 25 µM, sheet LTC_compound_viability, value ± spread, read-out: viability, L. infantum promastigote (25 µM)
[15] = Leishmania major, read-out: viability, L.major amastigote (25 µM)
[16] = Trypanosoma brucei, 2.5 µM, read-out: viability, T.brucei (2.5 µM)
[17] = Trypanosoma brucei, 25 µM, read-out: viability, T.brucei (25 µM)
[18] = Trypanosoma brucei, read-out: EC50 T. brucei BSF, dose response, triplicate
[19] = 2.5 µM, read-out: viability, T.cruzi (2.5 µM)
[20] = 25 µM, read-out: viability, T.cruzi (25 µM)
[21] = read-out: viability, E.histolytica (2.5 µM)
[22] = read-out: viability, E.histolytica (25 µM)
[23] = read-out: viability, J774 (2.5 µM)
[24] = read-out: viability, J774 (25 µM)

Compound	viability at 25 µM [1, 11] [%]	viability at 25 µM [1, 12] [%]	viability at 2.5 µM [2, 13] [%]	viability at 25 µM [2, 14] [%]	viability at 25 µM [3, 15] [%]	viability at 2.5 µM [4, 16] [%]	viability at 25 µM [4, 17] [%]	EC50 [4, 18] [µM]	viability at 2.5 µM [5, 19] [%]	viability at 25 µM [5, 20] [%]	EC50 ([6]; 48 h) [µM]	viability at 2.5 µM [6, 21] [%]	viability at 25 µM [6, 22] [%]	viability at 72 h, 2.5 µM [7, 23] [%]	viability at 72 h, 25 µM [7, 24] [%]	viability at 25 µM [8] [%]	also measured
O=C(CCc1ccc(Br)cc1)NC(Cc1ccccc1)C(O)CN1CCN(Cc2ccccc2)CC1 (centres unmarked) [LTC-10]	65.1 ± 3.01	0.71 ± 1	100.8 ± 0.96	0.85 ± 0.33	74.2 ± 2.26	99.8 ± 6.25	2.86 ± 1.31	6 ± 1.7	61.1 ± 6.21	21.5 ± 1.69	6.5 ± 1.7	73.2 ± 7	4.28 ± 0.62	99.9 ± 5.33	2.99 ± 1.94	33.7 ± 12	
CC[C@@H](C)[C@H](c1nc2ccccc2n1Cc1cn(-c2c(F)c(F)c(F)c(F)c2F)nn1)N1C(=O)c2ccc(C)cc2C1=O [PHT-80]								0.4									viability at 25 µM ([1]; 25 µM, 72 h, vs non-treated cells, read-out: Residual viability, L.major promastigote (25 µM)): 11.3 ± 1.4%; viability at 2.5 µM ([2]; 2.5 µM, 72 h, vs non-treated cells, read-out: Residual viability, L. infantum promastigote (2.5 µM)): 90.2 ± 3.63%; viability at 25 µM ([2]; 25 µM, 72 h, vs non-treated cells, ± SD, triplicate, read-out: Residual viability, L. infantum promastigote (25 µM)): 2.87 ± 0.48%; viability at 2.5 µM ([3]; Leishmania major, 72 h, read-out: Residual viability, L.major amastigote (2.5 µM)): 50.9 ± 3.89%; viability at 25 µM ([3]; Leishmania major, 72 h, read-out: Residual viability, L.major amastigote (25 µM)): 1.7%; EC50 ([3]; Leishmania major, read-out: EC50 L. major axenic amastigote): 2.5 ± 1.7 µM; EC50 ([9]; J774, read-out: EC50 L. infantum rescue assay, intramacrophage (J774), 18 concentrations): > 10 µM; viability at 25 µM ([9]; J774, rescue assay in J774, 25 µM, read-out: Residual viability, intracellular L. infantum amastigote (25 µM)): 50.6 ± 13.8%; Residual viability, T.brucei (2.5 µM) ([4]; BSF, 2.5 µM, 72 h): 3.41±0.28%; viability at 25 µM ([4]; Trypanosoma brucei, 72 h, BSF, 25 µM, 72 h, read-out: Residual viability, T.brucei (25 µM)): -2.86 ± 1.75%; viability at 2.5 µM ([4]; Trypanosoma brucei, 72 h, read-out: Residual viability, T.brucei (2.5 µM), BSF, 2.5 µM, 72 h): 3.4%; EC50 ([4]; read-out: EC50 T. brucei BSF, dose response, triplicate): 0.5 µM; EC50 ([4]; read-out: EC50 T. brucei BSF, dose response, triplicate, listed as PH-80): 0.45 µM; viability at 2.5 µM ([5]; 72 h, 2.5 µM, 72 h, read-out: Residual viability, T.cruzi (2.5 µM)): 72.4 ± 2.05%; viability at 25 µM ([5]; 72 h, read-out: Residual viability, T.cruzi (25 µM), 25 µM, 72 h): 25.7 ± 3.29%; viability at 2.5 µM ([6]; 2.5 µM, 48 h, read-out: Residual viability, E.histolytica (2.5 µM)): 61.8 ± 13.1%; viability at 25 µM ([6]; 25 µM, 48 h, read-out: Residual viability, E.histolytica (25 µM)): 45.2 ± 18.6%; viability at 72 h, 2.5 µM ([7]; cytotoxicity, 72 h, read-out: Residual viability, J774 (2.5 µM)): 124 ± 4.4%; viability at 72 h, 25 µM ([7]; cytotoxicity, 72 h, read-out: Residual viability, J774 (25 µM)): 78.1 ± 6.86%; EC50 ([10]; Mus musculus, J774, 72 h, cytotoxicity, 72 h): > 25 µM
O=C(Cc1cccc(C(F)(F)F)c1)NC(Cc1ccccc1)C(O)CN1CCN(Cc2ccccc2)CC1 (centres unmarked) [LTC-8]	67.5 ± 1.55	0.28 ± 0.16	101 ± 1.24	0.96 ± 0.46	75.1 ± 2.03	98.5 ± 6.21	3.15 ± 1.45	7.3 ± 1.7	59.3 ± 1.4	33.8 ± 0.8	4.4 ± 1.7	60.3 ± 6.76	0.54 ± 0.81	102 ± 8.6	4.16 ± 2.39	67.2 ± 5.73	
O=C(Cc1ccc2ccccc2c1)NC(Cc1ccccc1)C(O)CN1CCN(Cc2ccccc2)CC1 (centres unmarked) [LTC-6]	66.2 ± 3.33	0.62 ± 0.39	100.6 ± 0.6	0.37 ± 0.06	73.5 ± 1.98	91 ± 5.89	2.92 ± 1.26	5.6 ± 1.7	56.4 ± 4.53	18.4 ± 1.57	4.9 ± 1.8	86.8 ± 20.5	2.71 ± 1.39	106 ± 6.66	2.99 ± 2.56	47.3 ± 9.73	
LTC-4																	viability, L.major promastigote (25 µM) ([1]; 25 µM): 1.56±2.86; viability, L.major promastigote (25 µM) ([1]; head prints 25 µM, second of two columns with this head): 60.14±7.43; viability, L. infantum promastigote (2.5 µM) ([2]; 2.5 µM, sheet LTC_compound_viability, value ± spread): 85.51±1.79; viability, L. infantum promastigote (25 µM) ([2]; 25 µM, sheet LTC_compound_viability, value ± spread): 24.04±0.45; viability, L.major amastigote (25 µM) ([3]; 25 µM): 76.6±1.33; viability, T.brucei (2.5 µM) ([4]; 2.5 µM): 100.44±5.5; viability, T.brucei (25 µM) ([4]; 25 µM): 89.28±12.34; viability, T.cruzi (2.5 µM) ([5]; 2.5 µM): 57.84±2.64; viability, T.cruzi (25 µM) ([5]; 25 µM): 58.59±2.21; viability, E.histolytica (2.5 µM) ([6]; 2.5 µM): 68±7.58; viability, E.histolytica (25 µM) ([6]; 25 µM): 71.3±5.74; viability, J774 (2.5 µM) ([10]; 2.5 µM): 100.11±5.45; viability, J774 (25 µM) ([10]; 25 µM): 144.21±37.63; viability, intracellular L. major amastigote (25 µM) ([8]; 25 µM): 76.09±31.52

Reference: paper PMC10994559 (PLOS Neglected Tropical Diseases, 2024)
